Our source for the AC50 values is ChEMBL document CHEMBL5291721, “A preclinical secondary pharmacology resource illuminates target-adverse drug reaction associations of marketed drugs” (Nat Commun, 2023).

Targets include Vasopressin V1a receptor (Homo sapiens, UniProt P37288); Melanocortin receptor 4 (Homo sapiens, UniProt P32245); Mu-type opioid receptor (Homo sapiens, UniProt P35372).
The target of another assay is T1, Adenosine receptor A1 (Homo sapiens, UniProt P30542).
T1 sequence (P30542 whole entry): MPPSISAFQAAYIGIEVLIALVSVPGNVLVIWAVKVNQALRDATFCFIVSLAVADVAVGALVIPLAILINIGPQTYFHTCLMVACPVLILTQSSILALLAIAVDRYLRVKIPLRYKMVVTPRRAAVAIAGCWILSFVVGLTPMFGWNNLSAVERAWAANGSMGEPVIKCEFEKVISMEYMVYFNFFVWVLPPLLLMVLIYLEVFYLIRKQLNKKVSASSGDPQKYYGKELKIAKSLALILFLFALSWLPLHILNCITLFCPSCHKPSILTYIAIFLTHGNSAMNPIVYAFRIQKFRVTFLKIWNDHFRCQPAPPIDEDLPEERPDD

The target in a further assay is T2, Glucocorticoid receptor (Homo sapiens, UniProt P04150).
T2 sequence (P04150 whole entry): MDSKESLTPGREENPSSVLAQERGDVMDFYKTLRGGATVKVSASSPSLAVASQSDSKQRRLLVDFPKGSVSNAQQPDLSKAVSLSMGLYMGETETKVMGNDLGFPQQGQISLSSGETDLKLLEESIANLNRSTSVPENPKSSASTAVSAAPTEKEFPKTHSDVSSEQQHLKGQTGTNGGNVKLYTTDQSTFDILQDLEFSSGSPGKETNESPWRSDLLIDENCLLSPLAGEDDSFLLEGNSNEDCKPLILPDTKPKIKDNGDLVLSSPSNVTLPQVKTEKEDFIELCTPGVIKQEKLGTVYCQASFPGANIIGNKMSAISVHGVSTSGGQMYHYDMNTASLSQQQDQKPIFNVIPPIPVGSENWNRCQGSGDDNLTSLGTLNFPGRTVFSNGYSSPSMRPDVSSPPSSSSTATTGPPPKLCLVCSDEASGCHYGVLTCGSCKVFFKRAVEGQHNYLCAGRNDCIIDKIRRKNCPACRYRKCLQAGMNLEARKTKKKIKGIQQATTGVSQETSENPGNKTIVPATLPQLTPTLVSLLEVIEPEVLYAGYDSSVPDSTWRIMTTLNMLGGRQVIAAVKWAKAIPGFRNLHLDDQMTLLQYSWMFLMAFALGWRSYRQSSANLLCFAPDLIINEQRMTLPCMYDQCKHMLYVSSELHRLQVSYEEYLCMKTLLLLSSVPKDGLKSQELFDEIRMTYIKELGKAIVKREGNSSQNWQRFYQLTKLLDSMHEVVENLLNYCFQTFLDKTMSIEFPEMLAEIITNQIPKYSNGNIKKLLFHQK

Assay [1] has as its target T3, Cannabinoid receptor 1 (Homo sapiens, UniProt P21554).
For another assay, the target named is T4, Endothelin-1 receptor (Homo sapiens, UniProt P25101).
T4 sequence (P25101 whole entry): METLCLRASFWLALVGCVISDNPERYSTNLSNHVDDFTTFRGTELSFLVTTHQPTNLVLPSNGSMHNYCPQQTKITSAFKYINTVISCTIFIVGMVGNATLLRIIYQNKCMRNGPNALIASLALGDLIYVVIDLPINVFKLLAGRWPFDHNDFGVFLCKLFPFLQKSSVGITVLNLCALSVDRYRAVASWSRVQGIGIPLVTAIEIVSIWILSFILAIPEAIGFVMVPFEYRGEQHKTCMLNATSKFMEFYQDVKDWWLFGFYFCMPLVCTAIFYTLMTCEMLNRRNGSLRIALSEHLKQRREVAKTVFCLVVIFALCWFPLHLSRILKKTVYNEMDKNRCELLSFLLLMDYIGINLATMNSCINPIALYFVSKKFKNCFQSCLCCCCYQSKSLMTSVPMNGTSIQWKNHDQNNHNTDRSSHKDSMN

Assay [2] addresses Voltage-dependent L-type calcium channel subunit alpha-1C (Rattus norvegicus, UniProt P22002). The assay is classed as functional.
The target in assay [3] is T3, Cannabinoid receptor 1. Type of assay: functional, cell-based.
For assay [4], the target named is T5, Alpha-1A adrenergic receptor (Homo sapiens, UniProt P35348).
T5 sequence (P35348 whole entry): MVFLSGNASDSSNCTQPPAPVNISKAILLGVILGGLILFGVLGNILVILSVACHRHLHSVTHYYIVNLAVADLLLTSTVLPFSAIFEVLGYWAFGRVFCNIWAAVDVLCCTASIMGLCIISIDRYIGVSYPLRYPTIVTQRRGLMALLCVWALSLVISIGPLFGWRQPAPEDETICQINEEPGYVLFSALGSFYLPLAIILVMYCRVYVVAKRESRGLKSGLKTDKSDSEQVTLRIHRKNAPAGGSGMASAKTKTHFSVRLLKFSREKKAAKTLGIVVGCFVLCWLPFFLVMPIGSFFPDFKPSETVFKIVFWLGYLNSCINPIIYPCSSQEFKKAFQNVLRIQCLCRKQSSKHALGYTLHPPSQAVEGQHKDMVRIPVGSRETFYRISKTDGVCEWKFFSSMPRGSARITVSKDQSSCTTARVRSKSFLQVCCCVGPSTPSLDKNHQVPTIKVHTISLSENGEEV

Assay [5] concerns the target T6, Muscarinic acetylcholine receptor M2 (Homo sapiens, UniProt P08172).
T6 sequence (P08172 whole entry): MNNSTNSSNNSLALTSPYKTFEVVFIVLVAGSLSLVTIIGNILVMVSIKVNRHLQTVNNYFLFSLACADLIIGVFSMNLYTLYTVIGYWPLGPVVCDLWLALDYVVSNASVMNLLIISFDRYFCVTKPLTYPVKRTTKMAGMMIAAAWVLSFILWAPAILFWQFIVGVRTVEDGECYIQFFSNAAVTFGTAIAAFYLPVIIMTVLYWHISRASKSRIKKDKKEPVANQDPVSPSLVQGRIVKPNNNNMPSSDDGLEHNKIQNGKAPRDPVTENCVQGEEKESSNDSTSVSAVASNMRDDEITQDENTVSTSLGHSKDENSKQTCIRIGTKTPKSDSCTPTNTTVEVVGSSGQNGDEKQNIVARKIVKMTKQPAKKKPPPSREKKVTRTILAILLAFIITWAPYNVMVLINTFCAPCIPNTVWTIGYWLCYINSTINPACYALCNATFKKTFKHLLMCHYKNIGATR
Type of assay: functional, cell-based.

For assay [6], the target named is 5-hydroxytryptamine receptor 2A (Homo sapiens, UniProt P28223). The assay is classed as functional, cell-based.
Also: assay procedure not described here.

Chain of Voltage-dependent L-type calcium channel subunit alpha-1C (P22002 whole entry): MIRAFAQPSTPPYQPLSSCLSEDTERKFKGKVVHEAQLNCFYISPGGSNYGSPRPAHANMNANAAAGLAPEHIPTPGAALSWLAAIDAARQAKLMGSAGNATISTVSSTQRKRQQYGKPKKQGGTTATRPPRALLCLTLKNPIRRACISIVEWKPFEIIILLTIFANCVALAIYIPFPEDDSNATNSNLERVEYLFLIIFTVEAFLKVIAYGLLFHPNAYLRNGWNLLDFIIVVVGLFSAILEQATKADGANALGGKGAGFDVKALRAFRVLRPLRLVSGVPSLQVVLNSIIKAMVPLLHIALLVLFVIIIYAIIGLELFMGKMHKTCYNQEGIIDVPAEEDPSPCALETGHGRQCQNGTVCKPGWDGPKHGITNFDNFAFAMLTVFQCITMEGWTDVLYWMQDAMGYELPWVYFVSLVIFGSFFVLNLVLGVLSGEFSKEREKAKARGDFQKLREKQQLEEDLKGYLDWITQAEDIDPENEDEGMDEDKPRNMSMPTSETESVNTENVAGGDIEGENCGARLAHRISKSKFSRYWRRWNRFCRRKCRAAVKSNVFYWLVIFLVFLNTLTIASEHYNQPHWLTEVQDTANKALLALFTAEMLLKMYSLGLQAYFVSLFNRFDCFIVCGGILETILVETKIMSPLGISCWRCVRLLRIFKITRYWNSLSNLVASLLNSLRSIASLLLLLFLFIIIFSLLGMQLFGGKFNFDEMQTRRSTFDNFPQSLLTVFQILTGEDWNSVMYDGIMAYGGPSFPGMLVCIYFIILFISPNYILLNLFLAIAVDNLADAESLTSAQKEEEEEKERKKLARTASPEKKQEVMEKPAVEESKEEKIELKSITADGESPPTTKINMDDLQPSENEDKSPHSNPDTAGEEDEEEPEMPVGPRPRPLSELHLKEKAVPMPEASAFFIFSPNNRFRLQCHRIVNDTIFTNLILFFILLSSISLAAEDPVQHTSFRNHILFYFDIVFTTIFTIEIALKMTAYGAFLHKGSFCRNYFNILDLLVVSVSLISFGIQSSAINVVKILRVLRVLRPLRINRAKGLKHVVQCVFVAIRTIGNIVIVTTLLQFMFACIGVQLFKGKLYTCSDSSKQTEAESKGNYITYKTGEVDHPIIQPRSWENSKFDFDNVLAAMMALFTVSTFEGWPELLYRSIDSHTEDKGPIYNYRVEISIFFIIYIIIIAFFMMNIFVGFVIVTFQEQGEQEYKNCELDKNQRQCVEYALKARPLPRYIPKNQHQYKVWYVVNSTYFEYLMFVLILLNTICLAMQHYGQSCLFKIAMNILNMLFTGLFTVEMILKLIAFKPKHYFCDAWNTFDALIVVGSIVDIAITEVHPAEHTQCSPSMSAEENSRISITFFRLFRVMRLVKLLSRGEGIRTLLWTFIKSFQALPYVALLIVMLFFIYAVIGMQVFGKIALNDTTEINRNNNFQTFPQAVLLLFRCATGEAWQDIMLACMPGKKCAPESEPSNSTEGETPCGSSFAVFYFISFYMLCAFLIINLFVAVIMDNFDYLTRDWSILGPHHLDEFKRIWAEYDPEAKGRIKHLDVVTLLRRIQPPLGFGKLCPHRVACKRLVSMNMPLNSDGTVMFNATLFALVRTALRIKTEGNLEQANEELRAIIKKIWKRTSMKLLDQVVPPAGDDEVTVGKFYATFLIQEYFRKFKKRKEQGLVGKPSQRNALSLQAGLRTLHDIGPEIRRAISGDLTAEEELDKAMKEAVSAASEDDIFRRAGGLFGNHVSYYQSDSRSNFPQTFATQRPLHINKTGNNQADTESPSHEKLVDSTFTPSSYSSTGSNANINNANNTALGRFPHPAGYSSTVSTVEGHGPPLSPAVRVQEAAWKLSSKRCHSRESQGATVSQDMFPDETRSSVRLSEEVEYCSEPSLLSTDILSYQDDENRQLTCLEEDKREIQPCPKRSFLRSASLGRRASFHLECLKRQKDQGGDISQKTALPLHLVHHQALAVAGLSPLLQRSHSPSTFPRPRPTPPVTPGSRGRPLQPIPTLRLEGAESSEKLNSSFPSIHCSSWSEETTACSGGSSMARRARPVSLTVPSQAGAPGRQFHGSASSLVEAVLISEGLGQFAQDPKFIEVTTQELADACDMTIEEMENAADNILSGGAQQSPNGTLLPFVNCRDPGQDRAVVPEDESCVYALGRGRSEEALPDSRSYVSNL
Chain of Mu-type opioid receptor (P35372 whole entry): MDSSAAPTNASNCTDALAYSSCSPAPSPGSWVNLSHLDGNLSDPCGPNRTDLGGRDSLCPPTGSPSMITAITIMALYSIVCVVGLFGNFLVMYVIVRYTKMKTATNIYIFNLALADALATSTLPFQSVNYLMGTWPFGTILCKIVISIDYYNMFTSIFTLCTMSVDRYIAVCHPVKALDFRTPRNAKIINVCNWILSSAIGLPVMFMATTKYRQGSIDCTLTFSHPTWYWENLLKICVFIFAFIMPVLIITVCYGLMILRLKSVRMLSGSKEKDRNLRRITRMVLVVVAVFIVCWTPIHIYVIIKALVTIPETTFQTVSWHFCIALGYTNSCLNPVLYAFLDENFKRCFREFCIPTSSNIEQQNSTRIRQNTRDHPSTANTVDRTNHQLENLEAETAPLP
Chain of Melanocortin receptor 4 (P32245 whole entry): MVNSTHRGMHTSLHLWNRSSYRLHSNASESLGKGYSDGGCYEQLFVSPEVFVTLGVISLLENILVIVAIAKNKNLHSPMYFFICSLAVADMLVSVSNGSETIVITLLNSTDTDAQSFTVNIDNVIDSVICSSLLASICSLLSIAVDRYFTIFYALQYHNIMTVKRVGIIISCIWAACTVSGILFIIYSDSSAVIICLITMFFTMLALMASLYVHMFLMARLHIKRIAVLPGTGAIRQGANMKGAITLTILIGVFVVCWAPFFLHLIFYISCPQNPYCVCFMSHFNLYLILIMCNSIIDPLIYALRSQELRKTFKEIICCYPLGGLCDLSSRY
Chain of 5-hydroxytryptamine receptor 2A (P28223 whole entry): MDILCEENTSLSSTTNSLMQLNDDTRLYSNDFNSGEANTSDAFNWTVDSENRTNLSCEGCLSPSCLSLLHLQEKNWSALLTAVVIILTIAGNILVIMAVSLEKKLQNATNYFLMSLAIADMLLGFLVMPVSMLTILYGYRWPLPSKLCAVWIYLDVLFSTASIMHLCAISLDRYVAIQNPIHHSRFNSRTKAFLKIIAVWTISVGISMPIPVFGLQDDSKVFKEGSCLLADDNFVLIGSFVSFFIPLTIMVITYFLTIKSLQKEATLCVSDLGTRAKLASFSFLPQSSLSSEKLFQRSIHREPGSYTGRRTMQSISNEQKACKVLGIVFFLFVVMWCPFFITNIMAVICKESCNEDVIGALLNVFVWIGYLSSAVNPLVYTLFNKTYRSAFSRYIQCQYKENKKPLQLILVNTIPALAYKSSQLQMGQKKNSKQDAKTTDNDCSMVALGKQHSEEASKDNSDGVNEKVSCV
T3 sequence (P21554 whole entry): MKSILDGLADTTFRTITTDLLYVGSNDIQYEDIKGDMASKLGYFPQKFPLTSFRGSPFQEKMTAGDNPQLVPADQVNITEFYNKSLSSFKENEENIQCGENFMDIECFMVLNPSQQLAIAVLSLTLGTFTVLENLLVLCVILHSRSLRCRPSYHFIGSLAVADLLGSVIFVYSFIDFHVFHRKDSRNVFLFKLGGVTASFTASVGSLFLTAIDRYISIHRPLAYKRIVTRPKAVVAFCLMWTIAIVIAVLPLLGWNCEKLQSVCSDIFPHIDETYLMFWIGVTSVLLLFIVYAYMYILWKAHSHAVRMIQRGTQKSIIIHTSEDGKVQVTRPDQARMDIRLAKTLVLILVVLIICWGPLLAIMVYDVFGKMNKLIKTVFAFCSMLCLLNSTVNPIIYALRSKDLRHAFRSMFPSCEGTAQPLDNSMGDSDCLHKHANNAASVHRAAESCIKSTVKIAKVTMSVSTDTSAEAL
Chain of Vasopressin V1a receptor (P37288 whole entry): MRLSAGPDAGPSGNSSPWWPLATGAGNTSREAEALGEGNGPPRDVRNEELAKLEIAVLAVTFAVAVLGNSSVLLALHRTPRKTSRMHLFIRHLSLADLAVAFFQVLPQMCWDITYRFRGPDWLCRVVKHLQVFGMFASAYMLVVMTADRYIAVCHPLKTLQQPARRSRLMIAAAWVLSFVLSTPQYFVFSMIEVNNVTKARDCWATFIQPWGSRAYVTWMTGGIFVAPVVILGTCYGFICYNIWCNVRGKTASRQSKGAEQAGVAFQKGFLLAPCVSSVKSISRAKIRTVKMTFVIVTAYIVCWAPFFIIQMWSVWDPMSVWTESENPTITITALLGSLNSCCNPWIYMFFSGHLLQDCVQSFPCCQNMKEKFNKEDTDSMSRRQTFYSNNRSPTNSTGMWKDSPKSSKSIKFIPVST

Turning to `CCCCCCCC(=O)N[C@H](CN1CCCC1)[C@H](O)c1ccc2c(c1)OCCO2`, at Adenosine receptor A1, the AC50 was greater than 30 µM.
As to `C[C@]1(COc2ccc(N3CCC(Oc4ccc(OC(F)(F)F)cc4)CC3)cc2)Cn2cc([N+](=O)[O-])nc2O1`, the AC50 is greater than 10 µM on Vasopressin V1a receptor; greater than 30 µM on Glucocorticoid receptor; greater than 10 µM at Cannabinoid receptor 1 [1]; greater than 30 µM on Melanocortin receptor 4; greater than 30 µM on Adenosine receptor A1; greater than 30 µM at Endothelin-1 receptor. For the same compound, the AC50 (in assay [2]; at Mu-type opioid receptor) was greater than 10 µM each time.
Regarding `CC(=O)OCC[N+](C)(C)C` [ACETYLCHOLINE], the AC50 at Vasopressin V1a receptor is greater than 30 µM; at Glucocorticoid receptor it was greater than 30 µM; on Cannabinoid receptor 1 [1] it was greater than 10 µM; at Melanocortin receptor 4, greater than 30 µM; on Adenosine receptor A1, greater than 30 µM; on Endothelin-1 receptor, greater than 30 µM. Moreover, the AC50 on Cannabinoid receptor 1 [3] is greater than 30 µM; in assay [2] it was greater than 10 µM; on Mu-type opioid receptor, greater than 10 µM; in [4], greater than 10 µM.
As for `O=C(Nc1nc(-c2cc(Cl)cs2)c(N2CCN(C3CCCCC3)CC2)s1)c1cnc(N2CCC(C(=O)O)CC2)c(Cl)c1` [AVATROMBOPAG], the half-maximal activity concentration (AC50) is greater than 10 µM on Vasopressin V1a receptor; greater than 10 µM on Cannabinoid receptor 1 [1]; greater than 10 µM on Melanocortin receptor 4; greater than 30 µM on Adenosine receptor A1; greater than 10 µM at Endothelin-1 receptor; greater than 10 µM in assay [2]. Further, the AC50 on Mu-type opioid receptor is greater than 10 µM.
Take `C[C@@H](O)[C@H]1C(=O)N2C(C(=O)[O-])=C(SC3Cn4cnc[n+]4C3)[C@H](C)[C@H]12` (some centres undefined) [BIAPENEM]: the AC50 at Adenosine receptor A1 is greater than 30 µM.
Compound `Cc1nnc(SCC2=C(C(=O)O)N3C(=O)[C@@H](NC(=O)Cn4cc(Cl)c(=O)c(Cl)c4)[C@H]3SC2)s1` [CEFAZEDONE] showed an AC50 at Adenosine receptor A1 greater than 30 µM.
Regarding `CO[C@@]1(NC(=O)CSCC#N)C(=O)N2C(C(=O)O)=C(CSc3nnnn3C)CS[C@@H]21` [CEFMETAZOLE], the AC50 (on Adenosine receptor A1; at Cannabinoid receptor 1 [3]; in [5]) was greater than 30 µM throughout.
For `CO/N=C(\C(=O)N[C@@H]1C(=O)N2C(C(=O)[O-])=C(C[n+]3cccc4c3CCC4)CS[C@H]12)c1csc(N)n1` [CEFPIROME], the AC50 (in assay [6]; at Adenosine receptor A1; at Cannabinoid receptor 1 [3]; in assay [5]) was greater than 30 µM in each case.
`CC[C@H]1OC(=O)[C@H](C)[C@@H](O[C@H]2C[C@@](C)(OC)[C@@H](O)[C@H](C)O2)[C@H](C)[C@@H](O[C@@H]2O[C@H](C)C[C@H](N(C)C)[C@H]2O)[C@](C)(OC)C[C@@H](C)C(=O)[C@H](C)[C@@H](O)[C@]1(C)O` [CLARITHROMYCIN]: the AC50 (at Vasopressin V1a receptor; on Glucocorticoid receptor; on Adenosine receptor A1; at Endothelin-1 receptor; on Cannabinoid receptor 1 [3]; in [5]) was greater than 30 µM throughout.
As for `Oc1c(I)cc(Cl)c2cccnc12` [CLIOQUINOL], the AC50 (in assay [6]; at Adenosine receptor A1; at Cannabinoid receptor 1 [3]) was greater than 30 µM throughout.
For `COc1ccc2c(c1)[C@]13CCCC[C@@H]1[C@H](C2)N(C)CC3` [DEXTROMETHORPHAN], the AC50 on Vasopressin V1a receptor is greater than 10 µM; on Glucocorticoid receptor it was greater than 30 µM; on Cannabinoid receptor 1 [1], greater than 10 µM; at Melanocortin receptor 4 it was greater than 30 µM; on Endothelin-1 receptor, greater than 30 µM; in assay [2], greater than 10 µM. The half-maximal activity concentration (AC50) was greater than 10 µM in assay [5], 2.7 µM at Mu-type opioid receptor and 3.58 µM in assay [4].
`O=C(CCCN1CC=C(n2c(=O)[nH]c3ccccc32)CC1)c1ccc(F)cc1` [DROPERIDOL] registered an AC50 at Adenosine receptor A1 greater than 30 µM.
As to `Nc1nc(N)nc(Nc2ccc([As]3SCC(CO)S3)cc2)n1` (centres undefined) [MELARSOPROL], the AC50 at Adenosine receptor A1 was greater than 30 µM.
Compound `CCC(=O)O[C@@H]1CC(=O)O[C@H](C)C/C=C/C=C/[C@H](OC(C)=O)[C@H](C)C[C@H](CC=O)[C@H](O[C@@H]2O[C@H](C)[C@@H](O[C@H]3C[C@@](C)(OC(C)=O)[C@@H](OC(=O)CC)[C@H](C)O3)[C@H](N(C)C)[C@H]2O)[C@H]1OC` [MIOCAMYCIN] came in with an AC50 on Adenosine receptor A1 greater than 30 µM.
As to `C1CNCCN1` [PIPERAZINE], the AC50 at Adenosine receptor A1 is greater than 30 µM.
Turning to `CNCCCC1c2ccccc2C=Cc2ccccc21` [PROTRIPTYLINE], the AC50 on Vasopressin V1a receptor is greater than 10 µM; at Glucocorticoid receptor, greater than 10 µM; at Cannabinoid receptor 1 [1] it was greater than 10 µM; at Melanocortin receptor 4, greater than 10 µM; in assay [2] it was greater than 10 µM; in assay [5], 1.8 µM. The AC50 at Mu-type opioid receptor is greater than 10 µM; in assay [4], 0.461 µM.
Turning to `COCCCOc1ccnc(C[S+]([O-])c2nc3ccccc3[nH]2)c1C` (centres undefined) [RABEPRAZOLE], the AC50 on Vasopressin V1a receptor was greater than 10 µM; on Glucocorticoid receptor it was greater than 30 µM; on Cannabinoid receptor 1 [1], greater than 10 µM; on Melanocortin receptor 4, greater than 30 µM; on Adenosine receptor A1, greater than 30 µM; at Endothelin-1 receptor it was greater than 30 µM. Moreover, the AC50 in [2] was greater than 10 µM; in [5] it was greater than 10 µM; at Mu-type opioid receptor it was greater than 30 µM; in [4], greater than 10 µM.
With `OCCN1CCN(CC/C=C2/c3ccccc3Sc3ccc(Cl)cc32)CC1` [ZUCLOPENTHIXOL], the AC50 was greater than 10 µM at Vasopressin V1a receptor; greater than 10 µM on Glucocorticoid receptor; greater than 10 µM at Cannabinoid receptor 1 [1]; 0.51 µM in assay [6]; greater than 10 µM at Melanocortin receptor 4; greater than 10 µM in assay [2]. Moreover, the AC50 in assay [5] was greater than 10 µM; at Mu-type opioid receptor, greater than 10 µM; in [4], 0.0114 µM.
